The values that follow are results of earlier work, collected in patent US9554998B1, “Composition of analgesic bioadhesive healing microspheres” (priority 2015, dated 2017).

For data set [1] the following is noted: applied for 30 minutes to the forearms of healthy volunteers.
The conditions of data set [2]: single patient.

As to `FC(F)(F)C(Cl)Br` (centres unmarked) [halothane], in data set [1], the local analgesic effect entry is recorded as “slight local analgesic effect”. Regarding `FC(F)OC(Cl)C(F)(F)F` (centres unmarked) [isoflurane], the local analgesic effect entry in data set [1] is given as “slight local analgesic effect”. Turning to `FCOC(C(F)(F)F)C(F)(F)F` [sevoflurane, fluoromethyl 2.2.2-trifluoro-1-(trifluoromethyl)ethyl ether], in data set [2] (liquid sevoflurane directly on to the ulcer bed), the analgesic control entry is “immediate, intense and long-lasting analgesia”. In addition, the “time the ulcer took to heal” value in data set [2] (liquid sevoflurane on the ulcer bed) is given as 16 days. The local analgesic effect entry in data set [1] is given as “slight local analgesic effect”.
